# “And” between values parts separate entries of the source, which are not always exact repeats. Equal values may be shown once. “Also recorded” adds a separate entry of the source. Read-outs that look alike come from different tables or passages of the source.
# Legend:
# [1] = target: T1, recombinant hTS (Homo sapiens, UniProt P04818); assay: hTS enzyme inhibition, spectrophotometric assay at 340 nm; format: biochemical; conditions: for IC50: IC50 Recombinant hTS, 100 nM hTS, 50 µM mTHF, 110 µM dUMP, 60 min incubation at 37°C, standard error ±20%; for Ki: Ki (text of b40)
# T1 construct: made in house; host or cells: E. coli BL21 (DE3), pQE80L plasmid
# T1 sequence (P04818 whole entry): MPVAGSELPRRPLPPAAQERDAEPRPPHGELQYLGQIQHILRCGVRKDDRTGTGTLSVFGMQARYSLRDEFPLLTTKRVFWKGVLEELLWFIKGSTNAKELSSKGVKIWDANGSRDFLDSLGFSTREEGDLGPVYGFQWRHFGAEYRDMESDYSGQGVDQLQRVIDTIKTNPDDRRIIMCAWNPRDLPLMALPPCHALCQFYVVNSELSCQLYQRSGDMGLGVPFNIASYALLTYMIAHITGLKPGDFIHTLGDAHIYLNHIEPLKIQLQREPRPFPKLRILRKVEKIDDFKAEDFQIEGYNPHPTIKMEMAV
# [2] = tested on: P-gp; conditions: co-treatment with vincristine; ref Robey et al., 2004; Shafran et al., 2005; cited from earlier work
# [3] = tested on: IGROV-1 cells; assay: cells; format: cell-based; conditions: Homo sapiens, IGROV-1, 72 h, read-out: Cellular IC50 values IGROV-1, 72 h-treatment, compound alone
# [4] = tested on: ovarian and colorectal cancer cell lines (A2780, A2780/CP, IGROV-1, HT29, HCT116); assay: Cell growth, crystal violet assay, statements over several cancer cell lines; format: cell-based, human; conditions: for IC50: Homo sapiens
# [5] = tested on: HT29 cells; assay: Cell growth, crystal violet assay, HT29; format: cell-based, human; conditions: for effect of SAINT-Protein transfection on cell survival, HT29: 72 h, Figure 5C
# [6] = tested on: A2780 cells; assay: Cell cycle analysis by flow cytometry (PI), A2780; format: cell-based, human; conditions: 72 hr, Supplementary Figure S1
# Method: (§1) A slight opalescence indicates optimal mixing of the components. […] All experiments were conducted in duplicate. […] Quantitative measurements of the cell cycle phase distribution were performed by flow cytometry. Cells were then suspended in 0.5 mL of hypotonic fluorochrome solution (50 μg/mL PI, 0.1% sodium citrate, 0.1% Triton X-100). […] The percentages of nuclei in the different phases of the cell cycle (G0/G1, S and G2/M) were calculated using a DNA cell cycle analysis software (Cell-Fit, Becton Dickinson). A minimum of 10^4 cells was analyzed for each sample.
# [7] = tested on: HCT116 cells; assay: Cell cycle analysis by flow cytometry (PI), HCT116; format: cell-based, human; conditions: for sub-G0/G1, HCT116 cells, plus SAINT-Protein: 72 h, transfected with SAINT-Protein; for % of cells G0/G1, HCT116 cells / % of cells G2/M, HCT116 cells / % of cells S, HCT116 cells / % of cells sub G0/G1, HCT116 cells: 72 hr, E7 […], 5FU 5µM, with or without SAINT-Protein
# Method: as §1
# [8] = tested on: ABC transporters (P-glycoprotein, P-gp) and BCRP; conditions: in vitro; ref Vaidyanathan et al., 2016; cited from earlier work
# [9] = tested on: A2780/CP cells; assay: Cell growth, crystal violet assay, A2780/CP; format: cell-based, human
# [10] = tested on: human pancreatic cancer; conditions: compared with 5-FU; ref Costantino et al., 2022; cited from earlier work
# [11] = tested on: A2780 cells; assay: Cell growth, crystal violet assay, A2780; conditions: for IC50: Homo sapiens, A2780, 72 h
# [12] = tested on: HCT116 cells; assay: Cell growth, crystal violet assay, HCT116; format: cell-based; conditions: Homo sapiens, HCT-116, 72 h, read-out: Cellular IC50 values HCT116
# [13] = read-out: cancer cell growth inhibition potency (range over cell lines)
smiles,measurement,setting,value
"O=c1[nH]c(=O)n([C@H]2C[C@H](O)[C@@H](COP(=O)(O)O)O2)cc1F [FdUMP, 5-fluorodeoxyuridine-5′-monophosphate, reference compound]",IC50,[1],0.8 µM
"COc1cc2c(cc1OC)CN(CCc1ccc(NC(=O)c3cc(OC)c(OC)cc3NC(=O)c3cnc4ccccc4c3)cc1)CC2 [Tariquidar, 3-Quinolinecarboxamide, N-[2-[[[4-[2-(3,4-dihydro-6,7-dimethoxy-2(1H)-isoquinolinyl)ethyl]phenyl]amino]carbonyl]-4,5-dimethoxyphenyl]-]",concentration giving complete reversal of resistance,[2],25 to 80 nM
"NC(=O)c1ccc(NC(=O)C(Sc2ccc([N+](=O)[O-])cc2)c2ccccc2)cc1 (stereo not shown) [Compound E5, 2-Phenyl-2-(4-nitrophenylthio)-N-(4-carboxamidophenyl)acetamide]",Ki,[1],40 µM
same,IC50,[3],69.9 ± 8 µM
same,interaction with elacridar (synergism quotient analysis),"[4]; 200 nM elacridar 2 h pre-treatment, 72 h, A2780, IGROV-1, HT29",synergized by elacridar in all cell lines tested
same,"effect of SAINT-Protein transfection on cell killing, A2780 and A2780/CP","[4]; A2780 and A2780/CP, 72 h, Figure 5A, B",not significantly enhanced
same,IC50,[4]; [13],25 to 70 µM
same,"effect of SAINT-Protein transfection on cell survival, HT29",[5],no significant effect
"O=c1[nH]cc(F)c(=O)[nH]1 [Compound 5-FU, 5-fluorouracil, reference compound]","effect of SAINT-Protein transfection on sub-G0/G1 phase, A2780 cells",[6],did not benefit from SAINT-Protein transfection
same,"sub-G0/G1, HCT116 cells, plus SAINT-Protein",[7],about 40%
same,"% of cells G0/G1, HCT116 cells",[7],54.45%
same,"% of cells G2/M, HCT116 cells",[7],14.75%
same,"% of cells S, HCT116 cells",[7],12.55%
same,"% of cells sub G0/G1, HCT116 cells",[7],15.1%
"COc1cc2c(cc1OC)CN(CCc1ccc(NC(=O)c3cccc4c(=O)c5cccc(OC)c5[nH]c34)cc1)CC2 [Elacridar, N-[4-[2-(6,7-dimethoxy-3,4-dihydro-1H-isoquinolin-2-yl)ethyl]phenyl]-5-methoxy-9-oxo-10H-acridine-4-carbox amide]",concentration reversing multidrug resistance,[8],20 to 100 nM
"CS(=O)(=O)c1ccc2nc(NC(=O)C(Sc3ccc([N+](=O)[O-])cc3)c3ccccc3)sc2c1 (stereo not shown) [Compound E7, phenyl-2-(4-nitrophenylthio)-N-(6-methanesulfonylbenzothiazol-2-yl)acetamide]",IC50,"[9]; Homo sapiens, A2780C/P, 72 h, read-out: IC50 A2780/CP cells, without SAINT-Protein (Figure 4A)",15.3 ± 5 µM
same,"SQ with SAINT-Protein, A2780/CP cells, 5 μM",[9]; compound 5 μM + SAINT-Protein,1.54±0.45
same,"SQ with SAINT-Protein, A2780/CP cells, 12 μM",[9]; compound 12 μM + SAINT-Protein,1.34±0.1
same,"SQ with SAINT-Protein, A2780/CP cells, 25 μM",[9]; compound 25 μM + SAINT-Protein,1.15±0.03
same,Ki,[1],7 µM
same,IC50,[4]; [13],10 to 37 µM
same,"effect of SAINT-Protein transfection on sub-G0/G1 phase, A2780 cells",[6],significantly increased the percentage of cells in the sub-G0/G1 phase
same,anticancer profile in mouse model,[10],superior to that of 5-FU
same,"effect of SAINT-Protein transfection on cell survival, HT29",[5],more favoured by the presence of SAINT-Protein
same,"sub-G0/G1, HCT116 cells, plus SAINT-Protein",[7],~60%
same,"% of cells G0/G1, HCT116 cells",[7],58.15%
same,"% of cells G2/M, HCT116 cells",[7],11.67%
same,"% of cells S, HCT116 cells",[7],10.65%
same,"% of cells sub G0/G1, HCT116 cells",[7],17.53%
same,IC50,"[11]; read-out: IC50 A2780 cells, with SAINT-Protein (Figure 4A)",5.6 µM
same,IC50,"[11]; read-out: IC50 A2780 cells, without SAINT-Protein (Figure 4A)",10.9 µM
same,"SQ with SAINT-Protein, A2780 cells, 5 μM",[11]; compound 5 μM + SAINT-Protein,1.10±0.05
same,"SQ with SAINT-Protein, A2780 cells, 12 μM",[11]; compound 12 μM + SAINT-Protein,1.07±0.01
same,"SQ with SAINT-Protein, A2780 cells, 25 μM",[11]; compound 25 μM + SAINT-Protein,0.90±0.1
O=C(CSc1ccc([N+](=O)[O-])cc1)Nc1ccc(C(=O)O)cc1 [Compound E1],IC50,[1],8 µM and 8.2 µM
same,cellular activity at 100 µM,"[4]; 100 µM, five cancer cell lines of Table 1",no observed cellular activity
same,IC50,"[4]; read-out: IC50 with SAINT-Protein, OC cell lines",20 to 40 µM
same,"effect of SAINT-Protein transfection on cytotoxic activity, tested cell lines",[4]; with SAINT-Protein versus compound alone,benefits considerably; also recorded: showed cytotoxic activity when associated with the SAINT-Protein
same,IC50,[12],> 100 µM
same,IC50,"[5]; Homo sapiens, HT-29, 72 h, read-out: Cellular IC50 values HT29",> 100 µM
